Measurements published in the NIST ThermoML archive (doi:10.1021/je400861g).
Numbers after ± are expanded uncertainties.

Assay: mn = molality of the nth substance listed, in mol/kg
Conditions: 298.15 K; for surface tension liquid-gas: Ring tensiometer; for electrical conductivity: 101 kPa, Liquid, DDS-11A conductometer

Compound	surface tension liquid-gas (m1 = 0.0001) [mN/m]	surface tension liquid-gas (m1 = 0.0003) [mN/m]	electrical conductivity (m1 = 0.0003) [S/m]	electrical conductivity (m1 = 0.001) [S/m]	surface tension liquid-gas (m1 = 0.0006) [mN/m]	surface tension liquid-gas (m1 = 0.001) [mN/m]	surface tension liquid-gas (m1 = 0.0018) [mN/m]	surface tension liquid-gas (m1 = 0.003) [mN/m]	surface tension liquid-gas (m1 = 0.006) [mN/m]	surface tension liquid-gas (m1 = 0.01) [mN/m]	surface tension liquid-gas (m1 = 0.018) [mN/m]	electrical conductivity (m1 = 0.0006) [S/m]	electrical conductivity (m1 = 0.0018) [S/m]	electrical conductivity (m1 = 0.003) [S/m]	electrical conductivity (m1 = 0.006) [S/m]	electrical conductivity (m1 = 0.01) [S/m]	electrical conductivity (m1 = 0.018) [S/m]	electrical conductivity (m1 = 0.03) [S/m]	electrical conductivity (m1 = 0.04) [S/m]	electrical conductivity (m1 = 0.06) [S/m]	other results
CCCCCCCCCCCCCCCCn1cc[n+](C)c1.F[B-](F)(F)F [1-hexadecyl-3-methylimidazolium tetrafluoroborate] + O	36.7 ± 0.8	36.4 ± 0.8	0.0265 ± 0.002	0.0593 ± 0.002	–	–	–	–	–	–	–	–	–	–	–	–	–	–	–	–	surface tension liquid-gas (m1 = 1e-05): 52.9 ± 2.2 mN/m; surface tension liquid-gas (m1 = 2e-05): 47.9 ± 2 mN/m; surface tension liquid-gas (m1 = 3e-05): 43.8 ± 1.5 mN/m; surface tension liquid-gas (m1 = 5e-05): 38.4 ± 1.2 mN/m; surface tension liquid-gas (m1 = 7e-05): 34.9 ± 0.8 mN/m; surface tension liquid-gas (m1 = 0.0002): 37 ± 0.8 mN/m; surface tension liquid-gas (m1 = 0.0005): 35.2 ± 0.7 mN/m; surface tension liquid-gas (m1 = 0.0007): 35.2 ± 0.7 mN/m; electrical conductivity (m1 = 3e-06): 0.0022 ± 0.002 S/m; electrical conductivity (m1 = 5e-06): 0.0022 ± 0.0022 S/m; electrical conductivity (m1 = 7e-06): 0.0024 ± 0.002 S/m; electrical conductivity (m1 = 5e-05): 0.007 ± 0.0021 S/m; electrical conductivity (m1 = 7e-05): 0.0103 ± 0.0021 S/m; electrical conductivity (m1 = 0.0001): 0.0142 ± 0.002 S/m; electrical conductivity (m1 = 0.0002): 0.0203 ± 0.002 S/m; electrical conductivity (m1 = 0.0005): 0.0372 ± 0.002 S/m; electrical conductivity (m1 = 0.0007): 0.0462 ± 0.002 S/m
CCCCCCCCCCCC[n+]1ccn(C)c1.F[B-](F)(F)F [1-dodecyl-3-methylimidazolium tetrafluoroborate] + O	–	56.4 ± 0.9	0.0324 ± 0.002	0.0379 ± 0.002	50.4 ± 0.9	43.1 ± 0.8	34.3 ± 0.7	29.6 ± 0.7	28.2 ± 0.7	28.2 ± 0.7	28.3 ± 0.7	0.0346 ± 0.002	0.0455 ± 0.002	0.0553 ± 0.002	0.0629 ± 0.002	0.0653 ± 0.002	0.0712 ± 0.002	0.0809 ± 0.002	0.091 ± 0.002	0.11 ± 0.002	surface tension liquid-gas (m1 = 0.008): 28.3 ± 0.7 mN/m; surface tension liquid-gas (m1 = 0.03): 28 ± 0.7 mN/m; surface tension liquid-gas (m1 = 0.06): 27.7 ± 0.7 mN/m; electrical conductivity (m1 = 0.008): 0.064 ± 0.002 S/m
CCCCCCCCCCCCCCn1cc[n+](C)c1.F[B-](F)(F)F [3-methyl-1-tetradecyl-1H-imidazol-3-ium tetrafluoroborate] + O	47.9 ± 0.9	39 ± 0.8	0.032 ± 0.002	0.036 ± 0.002	33.6 ± 0.7	29.9 ± 0.7	28.4 ± 0.7	27.8 ± 0.7	27.6 ± 0.7	27.3 ± 0.7	27 ± 0.7	0.0344 ± 0.002	0.0368 ± 0.002	0.0376 ± 0.002	0.0393 ± 0.002	0.0423 ± 0.002	0.0487 ± 0.002	0.0543 ± 0.002	0.0633 ± 0.002	0.0732 ± 0.002	surface tension liquid-gas (m1 = 0.00018): 41.9 ± 0.8 mN/m
